Legend:
[1] = target: human recombinant dopamine transporter (DAT) (Homo sapiens (Human), UniProt Q01959); test: Radioligand binding assay, dopamine transporter (MDS Pharma); details: for nH (Hill coefficient): DAT, slope of the competitive binding curve
Experimental: (§1) The monoamine transporters inhibitory activities of selected compounds (54b and 54d) are reported herein. The compounds were evaluated at MDS Pharma services (22011 Drive SE, Bothell, Wash. 98021, USA) using well established radioligand binding assays protocols (Galli, A. et al., J. Exp. Biol. 1995, 198, 2197-2212; Giros, B. et al., Trends Pharmcol. Sci. 1993, 14, 43-49; Gu, H. et al., J. Biol. Chem. 1994, 269(10), 7124-7130; Shearman, L. P. et al, Am. J. Physiol., 1998, 275 (6 Pt 1), C1621-1629; Wolf, W. A. et al., J. Biol. Chem. 1992, 267(29), 20820-20825). The human recombinant transporter proteins dopamine (DAT), norepinephrine (NET) and serotonin (SERT) were selected for the in vitro assays. The CHO-K1 cells expressed with human recombinant dopamine transporter (DAT) (MDS catalog 220320) was used for evaluating the dopamine transporter inhibitory activity. Whereas, MDCK cells expressed with human recombinant transporters norepinephrine (NET) (MDS catalog no. 204410) and serotonin (SERT) (MDS catalog no. 274030) were used for evaluating the norepinephrine transporter (NET) and serotonin transporter (SERT) inhibitory activities, respectively. The radioligand binding assays were carried out at four different test concentrations and the test concentrations were 1 nM, 10 nM, 0.1 μM, and 1 μM.
(§2) The assays were carried out in duplicates and the quantitative data are reported as IC50, Ki, and nH. Where presented, IC50 values were determined by a non-linear, least squares regression analysis using MathIQ™ (ID Business Solutions Ltd. UK). […] Where presented, the Hill coefficient (nH), defining the slope of the competitive binding curve, was calculated using MathIQ™.

[2] = target: human recombinant norepinephrine transporter (NET) (Homo sapiens (Human), UniProt P23975); test: Radioligand binding assay, norepinephrine transporter (MDS Pharma); details: for nH (Hill coefficient): NET, slope of the competitive binding curve
Chain of human recombinant norepinephrine transporter (NET) (P23975 whole entry): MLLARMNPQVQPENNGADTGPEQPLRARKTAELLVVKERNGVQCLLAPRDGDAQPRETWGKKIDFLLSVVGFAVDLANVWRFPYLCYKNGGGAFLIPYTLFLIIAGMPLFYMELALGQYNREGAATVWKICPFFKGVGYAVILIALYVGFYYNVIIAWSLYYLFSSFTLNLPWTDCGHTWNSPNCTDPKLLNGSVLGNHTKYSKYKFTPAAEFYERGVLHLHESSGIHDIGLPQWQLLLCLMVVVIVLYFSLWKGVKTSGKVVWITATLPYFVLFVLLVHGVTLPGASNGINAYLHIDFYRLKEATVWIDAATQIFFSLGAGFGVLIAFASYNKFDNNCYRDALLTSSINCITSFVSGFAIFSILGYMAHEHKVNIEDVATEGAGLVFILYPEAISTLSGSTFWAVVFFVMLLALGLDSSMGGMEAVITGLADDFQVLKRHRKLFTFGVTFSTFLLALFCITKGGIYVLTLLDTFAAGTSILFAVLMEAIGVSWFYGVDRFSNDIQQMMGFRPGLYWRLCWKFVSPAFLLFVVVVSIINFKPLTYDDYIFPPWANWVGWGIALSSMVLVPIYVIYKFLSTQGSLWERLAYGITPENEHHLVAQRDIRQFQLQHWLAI
Experimental: The human recombinant transporter proteins dopamine (DAT), norepinephrine (NET) and serotonin (SERT) were selected for the in vitro assays. […] The radioligand binding assays were carried out at four different test concentrations and the test concentrations were 1 nM, 10 nM, 0.1 μM, and 1 μM.
as §2

[3] = target: human recombinant serotonin transporter (SERT) (Homo sapiens (Human), UniProt P31645); test: Radioligand binding assay, serotonin transporter (MDS Pharma); details: for nH (Hill coefficient): SERT, slope of the competitive binding curve
Experimental: as §1, §2

SMILES	IC50 [1]	Ki [1]	nH (Hill coefficient) [1]	IC50 [2]	Ki [2]	nH (Hill coefficient) [2]	IC50 [3]	Ki [3]	nH (Hill coefficient) [3]
CCOC(=O)C(CC)NC(CC(C)C)C1(c2ccc(Cl)cc2)CCC1 (stereo not drawn) [Compound 54b, Ethyl 2-(1-(1-(4-chlorophenyl)cyclobutyl)-3-methylbutylamino]butanoate]	56.9 nM	45.2 nM	0.826	121 nM	120 nM	0.832	140 nM	22.8 nM	0.677
CCC(NC(CC(C)C)C1(c2ccc(Cl)cc2)CCC1)C(=O)OCC(C)C (stereo not drawn) [Compound 54d, Isobutyl 2-(1-(1-(4-chlorophenyl)cyclobutyl)-3-methylbutylamino]butanoate]	370 nM	294 nM	0.943	182 nM	180 nM	1.04	415 nM	67.6 nM	0.578

Reference: patent US9302981B2, “Synthesis, methods of using, and compositions of cycloalkylmethylamines” (Reviva Pharmaceuticals, Inc., priority 2006, dated 2016)
